We go through 22 molecules from ChEMBL document CHEMBL5500373, “Lead optimization based design, synthesis, and pharmacological evaluation of quinazoline derivatives as multi-targeting agents for Alzheimer's disease treatment” (Eur J Med Chem, 2024).

SMILES strings stand for the structures. Active and inactive are the calls of the source. No cut-off for these calls is given here.

For series [1], the target named is T1, Beta-secretase 1 (Homo sapiens, UniProt P56817). Briefly: Inhibition of BACE-1 in human SH-SY5Y cells transfected with human APP695 measured after 24 hrs by ELISA. The series is classed as cell-based. For orientation: In an ELISA, binding on a coated surface is turned into a signal by an enzyme label.
T1 sequence (P56817 whole entry): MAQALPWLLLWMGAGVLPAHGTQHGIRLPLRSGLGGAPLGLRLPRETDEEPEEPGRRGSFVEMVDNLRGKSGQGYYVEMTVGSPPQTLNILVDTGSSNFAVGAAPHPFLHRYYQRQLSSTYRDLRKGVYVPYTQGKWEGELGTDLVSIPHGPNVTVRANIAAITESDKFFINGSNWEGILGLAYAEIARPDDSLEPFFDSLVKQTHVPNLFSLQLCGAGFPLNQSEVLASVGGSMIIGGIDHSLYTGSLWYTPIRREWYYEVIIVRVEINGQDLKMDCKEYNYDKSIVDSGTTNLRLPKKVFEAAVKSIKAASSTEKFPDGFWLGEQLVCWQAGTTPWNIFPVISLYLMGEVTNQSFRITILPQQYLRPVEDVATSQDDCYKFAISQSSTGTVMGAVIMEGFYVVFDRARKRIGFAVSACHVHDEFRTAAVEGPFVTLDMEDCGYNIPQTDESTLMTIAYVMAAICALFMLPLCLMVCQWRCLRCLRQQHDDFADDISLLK
Series [2] has as its target T1, Beta-secretase 1. Description: Inhibition of C-terminal 10-His tagged recombinant human BACE-1 using Mca-Ser-Glu-Val-Asn-Leu-Asp-Ala-Glu-Phe-Arg-Lys(Dnp)-Arg-Arg-NH2 as substrate pretreated for 10 mins followed by substrate addition and measured every 5 mins for 120 mins.
The nature of series [3]: Cytotoxicity against human SH-SY5Y cells by MTT assay. The series is classed as toxicity, cell-based. A general note: Tetrazolium dyes change colour on reduction, which living cells bring about.
Series [4] has as its target T2, Acetylcholinesterase (Homo sapiens, UniProt P22303). Briefly: Inhibition of AChE (unknown origin).
Series [5] is described as follows: Antioxidant activity assessed as DPPH radical scavenging activity incubated for 30 mins in dark by UV/visible spectrophotometric analysis. The series is classed as functional.
Series [6] addresses T1, Beta-secretase 1. Description: Inhibition of human BACE-1 measured after 2 hrs by FRET assay.
Series [7] deals with T3, Cholinesterase (Homo sapiens, UniProt P06276). Description: Inhibition of human serum BChE using butyrylthiocholine iodide as substrate preincubated for 30 mins followed by substrate addition and measured after 30 mins by DTNB based Ellman's method. Background: In Ellman's method for cholinesterases, released thiocholine reacts with DTNB.
T3 sequence (P06276 whole entry): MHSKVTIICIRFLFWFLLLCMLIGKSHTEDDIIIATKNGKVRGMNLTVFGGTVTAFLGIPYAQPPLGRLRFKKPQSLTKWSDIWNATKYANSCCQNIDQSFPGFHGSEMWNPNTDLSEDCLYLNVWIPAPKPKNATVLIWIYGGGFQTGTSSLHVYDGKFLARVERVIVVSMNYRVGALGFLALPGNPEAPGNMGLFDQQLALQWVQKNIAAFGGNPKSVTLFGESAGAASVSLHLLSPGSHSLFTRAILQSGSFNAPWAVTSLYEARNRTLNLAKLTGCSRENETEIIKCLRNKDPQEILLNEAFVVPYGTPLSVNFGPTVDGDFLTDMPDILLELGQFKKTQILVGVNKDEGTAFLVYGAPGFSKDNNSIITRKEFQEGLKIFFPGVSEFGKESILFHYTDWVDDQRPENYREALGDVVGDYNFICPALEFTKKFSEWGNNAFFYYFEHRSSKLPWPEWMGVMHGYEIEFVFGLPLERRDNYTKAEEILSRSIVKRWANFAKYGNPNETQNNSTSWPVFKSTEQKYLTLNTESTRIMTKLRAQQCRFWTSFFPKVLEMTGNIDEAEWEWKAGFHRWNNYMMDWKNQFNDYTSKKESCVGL
The target of series [8] is T2, Acetylcholinesterase. Description: Inhibition of human erythrocyte AChE using acetylthiocholine iodide as substrate preincubated for 30 mins followed by substrate addition and measured after 30 mins by DTNB based Ellman's method.
Series [9] has as its target T2, Acetylcholinesterase. Briefly: Inhibition of AChE (unknown origin) at 10 uM relative to control.
Series [10] has as its target T3, Cholinesterase. Description: Inhibition of BChE (unknown origin) at 10 uM relative to control.
The next series in a line: in vitro. As to conditions: PAMPA.
Series [11] addresses Cholinesterase (Equus caballus) (UniProt P81908). Briefly: Inhibition of horse serum BChE at 100 uM preincubated for 10 mins followed by substrate addition and measured after 15 mins by Ellman's method relative to control. The conditions noted are these: time 25.0 min.
The target in series [12] is Amyloid-beta precursor protein (Homo sapiens) (UniProt P05067). Briefly: Inhibition of self induced amyloid beta (1 to 42 residues) (unknown origin) aggregation at 10 uM by thioflavin T based fluorescence analysis relative to control.
Sequence of Amyloid-beta precursor protein (Homo sapiens) (P05067 whole entry, the tested form may be a part): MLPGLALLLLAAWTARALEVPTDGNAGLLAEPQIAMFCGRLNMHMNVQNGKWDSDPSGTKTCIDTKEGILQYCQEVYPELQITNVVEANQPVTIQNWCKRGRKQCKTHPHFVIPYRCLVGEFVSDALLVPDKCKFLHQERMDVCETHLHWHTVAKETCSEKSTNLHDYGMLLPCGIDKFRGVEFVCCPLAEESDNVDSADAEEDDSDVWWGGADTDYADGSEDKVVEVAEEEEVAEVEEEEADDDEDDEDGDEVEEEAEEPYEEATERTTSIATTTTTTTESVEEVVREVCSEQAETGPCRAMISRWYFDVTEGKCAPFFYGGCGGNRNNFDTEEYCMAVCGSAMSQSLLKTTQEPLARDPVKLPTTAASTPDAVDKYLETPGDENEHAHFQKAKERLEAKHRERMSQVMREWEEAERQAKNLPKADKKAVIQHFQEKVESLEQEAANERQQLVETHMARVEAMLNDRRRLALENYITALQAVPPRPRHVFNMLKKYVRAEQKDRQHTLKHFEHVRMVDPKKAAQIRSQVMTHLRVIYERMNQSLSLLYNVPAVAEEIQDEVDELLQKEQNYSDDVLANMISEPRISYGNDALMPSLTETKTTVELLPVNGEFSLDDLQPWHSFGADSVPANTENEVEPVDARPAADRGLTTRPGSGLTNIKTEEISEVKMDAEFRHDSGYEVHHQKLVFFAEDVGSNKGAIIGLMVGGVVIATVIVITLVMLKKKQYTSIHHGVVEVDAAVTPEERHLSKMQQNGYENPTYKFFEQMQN
The test system of the next series is PC-12. Description: Neuroprotective activity against amyloid beta (1 to 42 residues) induced cell damage in rat PC12 cells at 100 uM by MTT assay relative to control. It is filed as functional.
Series [13] has as its target T1, Beta-secretase 1. Briefly: Inhibition of human BACE-1 by FRET assay.
Series [14] addresses Amyloid-beta precursor protein (Homo sapiens) (UniProt P05067). Description: Inhibition of amyloid beta (1 to 42 residues) (unknown origin) aggregation assessed as reduction in massive oligomers measured after 3 days by AFM analysis. The conditions noted are these: time 3.0 day.
For series [15] the target is unchanged. Description: Inhibition of amyloid beta (1 to 42 residues) (unknown origin) aggregation assessed as reduction in fibrils measured after 3 days by AFM analysis. As to conditions: time 3.0 day.
Series [16] has as its target T1, Beta-secretase 1. Briefly: Inhibition of human BACE-1.
The nature of series [17]: Drug concentration in male Wistar rat brain homogenate at 20 mg/kg, po measured after 4 days. As to conditions: time 4 day, read-out: Ct. It is filed as ADME, organism-based.
Series [18] can be described thus: Drug concentration in male Wistar rat brain homogenate at 10 mg/kg, po measured after 4 days. The series is classed as ADME, organism-based. As to conditions: time 4 day, read-out: Ct.
Series [19] addresses T2, Acetylcholinesterase. Description: Inhibition of human AChE.
Series [20] addresses T3, Cholinesterase. Briefly: Inhibition of human BChE.

T2 sequence (P22303 whole entry): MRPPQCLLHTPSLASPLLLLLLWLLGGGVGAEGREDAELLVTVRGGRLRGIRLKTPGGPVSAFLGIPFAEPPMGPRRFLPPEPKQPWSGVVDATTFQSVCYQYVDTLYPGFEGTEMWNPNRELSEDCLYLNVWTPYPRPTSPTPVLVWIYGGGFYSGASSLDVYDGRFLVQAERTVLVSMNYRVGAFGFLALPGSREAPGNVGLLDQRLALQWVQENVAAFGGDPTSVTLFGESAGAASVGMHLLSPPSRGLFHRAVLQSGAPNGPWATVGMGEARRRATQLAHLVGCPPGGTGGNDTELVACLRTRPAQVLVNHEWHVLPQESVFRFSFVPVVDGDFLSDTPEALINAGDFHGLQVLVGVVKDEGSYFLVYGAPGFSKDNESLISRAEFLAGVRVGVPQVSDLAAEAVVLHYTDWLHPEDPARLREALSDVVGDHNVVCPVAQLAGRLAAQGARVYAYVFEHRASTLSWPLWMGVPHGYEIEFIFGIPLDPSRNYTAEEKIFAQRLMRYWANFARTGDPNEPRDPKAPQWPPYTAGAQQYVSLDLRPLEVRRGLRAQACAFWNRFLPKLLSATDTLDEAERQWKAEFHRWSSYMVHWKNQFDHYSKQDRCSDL
Sequence of Cholinesterase (Equus caballus) (P81908 whole entry, the tested form may be a part): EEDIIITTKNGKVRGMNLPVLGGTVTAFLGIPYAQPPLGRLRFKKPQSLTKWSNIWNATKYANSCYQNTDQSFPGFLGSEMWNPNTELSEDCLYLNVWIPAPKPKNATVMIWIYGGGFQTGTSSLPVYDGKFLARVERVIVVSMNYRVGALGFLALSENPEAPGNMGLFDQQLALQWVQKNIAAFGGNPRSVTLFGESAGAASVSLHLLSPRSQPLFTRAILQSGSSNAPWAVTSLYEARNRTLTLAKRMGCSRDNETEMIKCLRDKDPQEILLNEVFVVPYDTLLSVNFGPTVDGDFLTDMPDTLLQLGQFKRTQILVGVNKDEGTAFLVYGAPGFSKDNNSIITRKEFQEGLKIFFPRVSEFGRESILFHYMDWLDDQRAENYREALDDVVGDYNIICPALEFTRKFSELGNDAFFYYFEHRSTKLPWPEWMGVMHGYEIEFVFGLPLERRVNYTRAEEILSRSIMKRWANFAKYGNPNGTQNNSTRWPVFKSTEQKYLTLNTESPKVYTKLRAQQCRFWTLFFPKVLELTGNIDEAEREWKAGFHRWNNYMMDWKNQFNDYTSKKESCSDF

As for `CC1c2cc(Oc3ccccc3)ccc2N=C(N)N1CCCC(=O)N(Cc1ccnn1C)C1CCCCC1` (centres undefined), the values for the IC50 (against Beta-secretase 1 [1]; at Beta-secretase 1 [2]; in [3]) were 140 nM, 380 nM and 11800 nM, respectively.
`O=C(CCN1CCCCC1)Nc1ccc2nc(-c3cc4ccccc4[nH]3)[nH]c(=O)c2c1`: inhibition against Acetylcholinesterase [4] was half-maximal at 21 nM (IC50).
For `Cn1c(N/N=C/c2cccc(Cl)c2Cl)nc2ccccc2c1=O`, in series [5], the IC50 (commonly the point on the concentration scale where inhibition reaches its midpoint) is > 100000 nM.
In the case of `COc1cc2ncnc(N3CCN(c4ccc(C)cc4)CC3)c2cc1OC`, the concentration for half-maximal inhibition (IC50) is 1880 nM on Beta-secretase 1 [6], > 10000 nM at Cholinesterase [7] and 1170 nM on Acetylcholinesterase [8].
Consider `C#CCN(C)c1nc(NC2CCCCC2)c2ccc(Cl)cc2n1`, for which the inhibition against Acetylcholinesterase [9] and against Cholinesterase [10] was 3% in each case.
`COc1cc2ncnc(N3CCN(c4ccccn4)CC3)c2cc1OC`: the results for the IC50 at Beta-secretase 1 [6], against Cholinesterase [7] and against Acetylcholinesterase [8] were 1560 nM, > 10000 nM and 1150 nM, respectively.
As for `COc1cc2ncnc(N3CCN(c4ccc([N+](=O)[O-])cc4)CC3)c2cc1OC`, the values for the IC50 against Beta-secretase 1 [6], at Cholinesterase [7] and against Acetylcholinesterase [8] were 729 nM, > 10000 nM and 481 nM, respectively. The Papp (usually the rate of passage across a membrane or cell layer, normalised by area and donor concentration) at 18 h, 25 ug/ml in “in vitro” was found to be 4.81 ×10⁻⁶ cm/s.
With `COc1cc2ncnc(N3CCN(c4ccccc4)CC3)c2cc1OC`, the values for the IC50 at Beta-secretase 1 [6], at Cholinesterase [7] and on Acetylcholinesterase [8] were 1310 nM, > 10000 nM and 1010 nM, respectively.
The matching figures for `COc1cc2ncnc(N3CCN(C(C)=O)CC3)c2cc1OC`: 3660 nM, > 10000 nM and 1190 nM.
The matching figures for `COc1cc2ncnc(N3CCN(Cc4ccc(F)cc4)CC3)c2cc1OC`: 2920 nM, > 10000 nM and 932 nM.
The matching figures for `COc1cc2ncnc(N3CCN(c4ccc(F)cc4)CC3)c2cc1OC`: 1470 nM, > 10000 nM and 1040 nM.
Turning to `Cc1ccccc1-n1c(SCC(=O)N/N=C/c2ccc(Br)cc2)nc2ccccc2c1=O`, the inhibition (commonly the drop in the measured response relative to a control, in per cent) in series [11] was 6.8%.
In the case of `COc1cc2ncnc(N3CCN(C(c4ccccc4)c4ccccc4)CC3)c2cc1OC`, the IC50 on Beta-secretase 1 [6] is 662 nM; against Cholinesterase [7] it was > 10000 nM; at Acetylcholinesterase [8], 436 nM. The same molecule had a Papp at 18 h, 25 ug/ml in the series “in vitro” of 6.28 ×10⁻⁶ cm/s.
As to `COc1cc2ncnc(N3CCN(C)CC3)c2cc1OC`, the IC50 was 3280 nM against Beta-secretase 1 [6], > 10000 nM against Cholinesterase [7] and 1270 nM on Acetylcholinesterase [8].
For the molecule `COc1cc2ncnc(N3CCN(c4ccc(Br)cc4)CC3)c2cc1OC`, the IC50 at Beta-secretase 1 [6] was 1710 nM; against Cholinesterase [7] it was > 10000 nM; at Acetylcholinesterase [8], 973 nM.
In the case of `COc1cc2c(Nc3ccc(C(=O)/C=C/c4nc(C)c(C)nc4C)cc3)ncnc2c(OC)c1OC`, in series [12], the inhibition was 26.7%. The Activity with PC-12 was found to be 77%.
As to `COc1cc2ncnc(N3CCN(c4ccccc4[N+](=O)[O-])CC3)c2cc1OC`, the IC50 is 1820 nM against Beta-secretase 1 [6], > 10000 nM against Cholinesterase [7] and 914 nM against Acetylcholinesterase [8].
The matching figures for `COc1cc2ncnc(N3CCN(Cc4ccc(Cl)cc4)CC3)c2cc1OC`: 1650 nM, > 10000 nM and 921 nM.
In the case of `FC(F)(F)c1ccc(-c2nnc(NC3CCN(Cc4ccccc4)CC3)o2)cc1`, at Beta-secretase 1 [13], the IC50 stood at 146 nM.
For `COc1cc(/C=C/C(=O)CC(=O)/C=C/c2ccc(O)c(OC)c2)ccc1O`, the inhibition result in [14] and in [15] was “Active” each time.
With `c1ccc(CN2CCN(c3nc(-c4ccccc4)nc4ccccc34)CC2)cc1`, the IC50 at Beta-secretase 1 [16] is 254000 nM; on Acetylcholinesterase [19], 191 nM; against Cholinesterase [20] it was > 10000 nM. The concentration at 96 h in series [17] came to 54 ng/mL; in series [18], 15 ng/mL.
For the molecule `COc1cc2ncnc(N3CCN(Cc4ccc(C)cc4)CC3)c2cc1OC`, the IC50 was 1430 nM on Beta-secretase 1 [6], > 10000 nM against Cholinesterase [7] and 1020 nM against Acetylcholinesterase [8].
